The text below walks through data of patent US12128131B2, “Treatment of epithelial cysts by intracystic injection of antineoplastic particles” (CRITITECH, INC., priority 2017, dated 2024).

The nature of this series: Solubility in the Receptor Fluid (60/40 methanol/water, pH 4). It is filed as physicochemical. The settings on record: 60 vol. %/40 vol % methanol/water at pH 4 with 0.01 wt % NaN3.

Procedure: Receptor Fluid: The receptor fluid consisted of 60 vol. %/40 vol % methanol/water at pH 4 with 0.01 wt % NaN3 (added as a preservative). […] After mixing and degassing the Receptor Fluid it was filtered through a ZapCap CR 0.2 μm membrane under vacuum; the Receptor Fluid, so filtered, was stirred for an additional 20 minutes under vacuum.

As to `CC(=O)O[C@@]12CO[C@@H]1C[C@H](O)[C@@]1(C)C(=O)[C@H](O)C3=C(C)[C@@H](OC(=O)[C@H](O)[C@@H](NC(=O)OC(C)(C)C)c4ccccc4)C[C@@](O)([C@@H](OC(=O)c4ccccc4)[C@H]21)C3(C)C` [Docetaxel Raw Material, docetaxel], the “solubility in the Receptor Fluid” value is reported as “sufficient to maintain sink conditions”.
